According to paper doi:10.1101/2021.08.24.457553v1 (biorxiv, 2021):

Columns and labels:
PfPKG [1] = molecular target: T1, PfPKG (Plasmodium falciparum, UniProt Q8I719); assay: in vitro PfPKG kinase inhibition assay; type: biochemical; conditions: […] compound
in vitro [2] = assay: in vitro; parameters: species or system primary non-human primate hepatocytes; conditions: monkey, primary hepatocytes
[3] = liver microsomes
in vitro [4] = assay: in vitro; parameters: species or system primary non-human primate hepatocytes; conditions: monkey, primary hepatocytes; remark: listed apart in the source
2D6 = 2D6 (Homo sapiens, UniProt P10635); assay: biochemical
Sequence of 2D6 (P10635 whole entry): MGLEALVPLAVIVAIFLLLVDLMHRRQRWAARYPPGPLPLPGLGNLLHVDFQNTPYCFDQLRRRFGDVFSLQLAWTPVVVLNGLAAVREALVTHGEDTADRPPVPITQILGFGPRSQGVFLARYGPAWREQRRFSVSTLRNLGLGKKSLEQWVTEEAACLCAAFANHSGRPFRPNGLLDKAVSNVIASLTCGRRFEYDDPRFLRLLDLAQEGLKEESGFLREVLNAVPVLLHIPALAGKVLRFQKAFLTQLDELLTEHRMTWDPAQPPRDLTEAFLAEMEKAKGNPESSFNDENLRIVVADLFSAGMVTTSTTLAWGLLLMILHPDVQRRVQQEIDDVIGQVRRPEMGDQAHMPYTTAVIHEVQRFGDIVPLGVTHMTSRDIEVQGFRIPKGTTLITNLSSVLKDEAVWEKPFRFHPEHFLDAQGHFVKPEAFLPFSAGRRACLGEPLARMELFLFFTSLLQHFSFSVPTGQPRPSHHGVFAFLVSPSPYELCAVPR

P. berghei = assay: microbe, parasite or virus in culture; conditions: Plasmodium berghei, HepG2, read-out: % inhibition
PfPKG [5] = molecular target: T1, PfPKG; assay: in vitro PfPKG kinase inhibition assay; type: biochemical
[6] = liver microsomes; remark: listed apart in the source
2C9 = 2C9 (Homo sapiens, UniProt P11712); assay: biochemical
Sequence of 2C9 (P11712 whole entry): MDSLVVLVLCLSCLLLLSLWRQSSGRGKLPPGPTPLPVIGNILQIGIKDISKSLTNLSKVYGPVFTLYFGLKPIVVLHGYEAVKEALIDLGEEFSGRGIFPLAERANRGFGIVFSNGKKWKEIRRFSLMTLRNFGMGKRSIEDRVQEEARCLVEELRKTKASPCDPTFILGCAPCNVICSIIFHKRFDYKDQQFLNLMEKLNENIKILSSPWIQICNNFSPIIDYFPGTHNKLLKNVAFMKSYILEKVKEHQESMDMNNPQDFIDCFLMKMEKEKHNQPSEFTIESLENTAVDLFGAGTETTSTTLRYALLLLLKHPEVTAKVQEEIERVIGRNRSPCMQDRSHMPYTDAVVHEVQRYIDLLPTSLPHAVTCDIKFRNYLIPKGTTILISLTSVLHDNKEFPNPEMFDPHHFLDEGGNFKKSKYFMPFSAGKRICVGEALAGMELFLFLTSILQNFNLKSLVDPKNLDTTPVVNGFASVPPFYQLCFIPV

hERG = hERG (Homo sapiens, UniProt Q12809); conditions: HEK293, 10 µM
Sequence of hERG (Q12809 whole entry): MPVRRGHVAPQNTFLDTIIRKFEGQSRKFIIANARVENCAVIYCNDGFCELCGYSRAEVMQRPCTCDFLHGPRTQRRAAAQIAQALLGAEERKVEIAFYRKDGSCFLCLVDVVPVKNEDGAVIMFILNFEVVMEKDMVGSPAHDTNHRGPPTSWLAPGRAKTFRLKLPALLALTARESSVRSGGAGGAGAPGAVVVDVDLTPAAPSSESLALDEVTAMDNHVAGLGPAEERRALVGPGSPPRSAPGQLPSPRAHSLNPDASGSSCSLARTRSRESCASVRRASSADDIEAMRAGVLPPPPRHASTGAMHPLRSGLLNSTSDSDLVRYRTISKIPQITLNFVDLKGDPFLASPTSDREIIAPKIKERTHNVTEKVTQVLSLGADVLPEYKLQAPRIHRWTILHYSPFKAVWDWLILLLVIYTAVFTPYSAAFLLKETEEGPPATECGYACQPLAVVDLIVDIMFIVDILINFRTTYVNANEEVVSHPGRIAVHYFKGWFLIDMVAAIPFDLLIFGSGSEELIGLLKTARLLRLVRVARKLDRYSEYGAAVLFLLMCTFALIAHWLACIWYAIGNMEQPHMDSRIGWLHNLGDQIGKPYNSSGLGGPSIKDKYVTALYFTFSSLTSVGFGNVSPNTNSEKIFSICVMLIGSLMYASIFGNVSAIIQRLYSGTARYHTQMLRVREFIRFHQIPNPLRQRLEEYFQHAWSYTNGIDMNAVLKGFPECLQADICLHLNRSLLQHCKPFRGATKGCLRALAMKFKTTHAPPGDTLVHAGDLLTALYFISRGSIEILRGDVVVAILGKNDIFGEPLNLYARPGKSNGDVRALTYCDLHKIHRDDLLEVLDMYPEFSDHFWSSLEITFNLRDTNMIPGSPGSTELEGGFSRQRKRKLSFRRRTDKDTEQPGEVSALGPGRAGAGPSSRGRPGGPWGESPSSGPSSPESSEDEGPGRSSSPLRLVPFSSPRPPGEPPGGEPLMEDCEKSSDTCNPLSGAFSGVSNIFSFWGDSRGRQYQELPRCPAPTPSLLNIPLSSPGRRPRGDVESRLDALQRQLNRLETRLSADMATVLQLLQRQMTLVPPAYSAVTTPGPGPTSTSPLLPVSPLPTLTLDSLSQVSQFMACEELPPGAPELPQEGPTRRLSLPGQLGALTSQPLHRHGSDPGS

CYP3A4 = CYP3A4 (Homo sapiens, UniProt P08684); assay: in vitro CYP3A4 inhibition; type: cell-based
Sequence of CYP3A4 (P08684 2-503): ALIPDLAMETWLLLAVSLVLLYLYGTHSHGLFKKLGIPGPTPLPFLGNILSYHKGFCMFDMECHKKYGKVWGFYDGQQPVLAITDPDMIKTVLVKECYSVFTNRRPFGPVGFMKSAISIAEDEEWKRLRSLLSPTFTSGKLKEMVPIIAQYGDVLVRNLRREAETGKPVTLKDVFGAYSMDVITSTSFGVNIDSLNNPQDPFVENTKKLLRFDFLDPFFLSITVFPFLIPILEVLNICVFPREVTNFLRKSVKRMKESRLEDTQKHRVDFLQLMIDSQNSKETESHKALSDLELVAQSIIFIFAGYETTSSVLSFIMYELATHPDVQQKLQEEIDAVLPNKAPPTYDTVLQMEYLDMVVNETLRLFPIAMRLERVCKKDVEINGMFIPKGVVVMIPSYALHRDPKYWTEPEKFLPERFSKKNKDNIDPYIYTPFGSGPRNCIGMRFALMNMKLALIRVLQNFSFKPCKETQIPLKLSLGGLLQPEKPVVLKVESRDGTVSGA

PfPKG [7] = molecular target: T1, PfPKG; assay: in vitro PfPKG kinase inhibition assay; type: biochemical; conditions: […] compound; remark: listed apart in the source

T1 sequence (Q8I719 whole entry): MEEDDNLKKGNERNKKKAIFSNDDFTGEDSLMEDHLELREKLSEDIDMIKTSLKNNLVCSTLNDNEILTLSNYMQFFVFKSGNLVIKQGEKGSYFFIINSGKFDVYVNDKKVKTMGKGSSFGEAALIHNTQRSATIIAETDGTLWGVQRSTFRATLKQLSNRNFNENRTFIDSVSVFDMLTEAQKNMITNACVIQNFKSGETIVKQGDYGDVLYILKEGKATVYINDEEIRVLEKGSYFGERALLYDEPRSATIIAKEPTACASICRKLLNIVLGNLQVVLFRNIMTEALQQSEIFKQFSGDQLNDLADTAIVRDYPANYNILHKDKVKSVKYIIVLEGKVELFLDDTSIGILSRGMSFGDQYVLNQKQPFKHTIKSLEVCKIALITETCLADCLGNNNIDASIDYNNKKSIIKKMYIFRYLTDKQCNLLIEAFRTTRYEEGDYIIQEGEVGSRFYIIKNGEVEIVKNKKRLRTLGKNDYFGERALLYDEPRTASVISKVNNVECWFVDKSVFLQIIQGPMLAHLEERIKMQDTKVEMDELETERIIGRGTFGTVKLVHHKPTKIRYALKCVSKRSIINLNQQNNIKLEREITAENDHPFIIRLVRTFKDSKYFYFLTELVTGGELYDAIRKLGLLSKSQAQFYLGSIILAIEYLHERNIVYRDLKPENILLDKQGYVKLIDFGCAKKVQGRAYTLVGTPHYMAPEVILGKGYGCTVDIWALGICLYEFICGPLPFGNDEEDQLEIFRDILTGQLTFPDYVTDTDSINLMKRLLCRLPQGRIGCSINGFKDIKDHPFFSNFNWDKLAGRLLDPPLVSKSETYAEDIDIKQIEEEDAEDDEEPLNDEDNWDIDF

Cc1cn(-c2ccnc(NC3CCCN(C(=O)c4nccs4)C3)n2)c(-c2ccccc2)n1 (racemic) [10d]
% inh @ 1 uM (PfPKG [1]): 4%

Cc1cn(-c2ccnc(N[C@@H]3CCN(C(=O)c4nccs4)C3)n2)c(-c2ccccc2)n1 [10a]
CC50 at 96 h (in vitro [2]): > 20 µM
MLM t1/2 [3]: < 2 min
CC50 at 96 h (in vitro [4]): > 20 µM
IC50 (2D6): > 10 µM
inhibition at 2 µM (P. berghei): 78 ± 20%
inhibition at 10 µM (P. berghei): 89 ± 7%
IC50 (PfPKG [5]): 320 nM
HLM t1/2 [6]: < 2 min
IC50 (2C9): > 10 µM

Cc1cn(-c2ccnc(N[C@@H]3CCN(C(=O)c4ccn(C)n4)C3)n2)c(-c2ccccc2)n1 [10b]
IC50 (PfPKG [5]): 1000 nM

Cc1cn(-c2ccnc(N[C@H]3CCN(C(=O)c4nccs4)C3)n2)c(-c2ccccc2)n1 [10c]
% inh @ 1 uM (PfPKG [1]): 4%

O=C(c1nccs1)N1CC[C@@H](Nc2nccc(-n3cc(C4CC4)nc3-c3ccccc3)n2)C1 [14a]
MLM t1/2 [3]: < 2 min
IC50 (PfPKG [5]): 100 nM
hERG % inh. @ 10 uM (hERG): 1%
HLM t1/2 [6]: 4.8 min
IC50 (CYP3A4): < 300 nM

O=C(c1nccs1)N1CC[C@@H](Nc2nccc(-n3cc(C4CC4)nc3-c3cccc(Cl)c3)n2)C1 [14b]
CC50 at 96 h (in vitro [2]): > 20 µM
MLM t1/2 [3]: <2 min
CC50 at 96 h (in vitro [4]): > 20 µM
inhibition at 2 µM (P. berghei): 94 ± 3%
inhibition at 10 µM (P. berghei): 93 ± 3%
IC50 (PfPKG [5]): 60 nM
hERG % inh. @ 10 uM (hERG): 9%
HLM t1/2 [6]: 3.7 min
IC50 (CYP3A4): < 300 nM

COc1cccc(-c2nc(C)cn2-c2ccnc(N[C@@H]3CCN(C(=O)c4nccs4)C3)n2)c1 [18a]
IC50 (PfPKG [5]): 86 nM

Cc1cn(-c2ccnc(N[C@@H]3CCN(C(=O)c4nccs4)C3)n2)c(-c2ccccc2Cl)n1 [18b]
% inhib @ 1 uM (PfPKG [7]): 47%

Cc1cn(-c2ccnc(N[C@@H]3CCN(C(=O)c4nccs4)C3)n2)c(-c2ccc(Cl)cc2)n1 [18c]
IC50 (PfPKG [5]): 1160 nM

Cc1cn(-c2ccnc(N[C@@H]3CCN(C(=O)c4nccs4)C3)n2)c(-c2cccc(OC(F)(F)F)c2)n1 [18d]
IC50 (PfPKG [5]): 150 nM
